Measured values: patent US9156827B2, “Anticancer agent” (THE UNIVERSITY OF TOKYO, priority 2010, dated 2015)
Counter-ions that a name gives are not always drawn.

Legend:
pim-1 kinase = pim-1 kinase (Homo sapiens, UniProt P11309); test: Measurement of pim-1 kinase inhibitory activity (fluorescent substrate peptide, capillary electrophoresis); format: biochemical; conditions: 0.1 μM of each compound, 30 μM ATP, 1.5 μM substrate peptide, room temperature 2 hours
Protocol: Measurement of Pim-1 Kinase Inhibitory Activity
The result of the reaction was determined by quantifying the substrate and the phosphorylated reaction product separated by capillary electrophoresis based on difference in charges of the substances (EZ Reader II, Caliper Life Sciences, was used).

[1] = tested on: Human acute myeloid leukemia MV4-11 cells; test: Cell proliferation-suppressing activity, chromogenic method (Cell Counting Kit-8); format: cell-based; conditions: compound 1 μM, 48 hours, Cell Counting Kit-8, absorbance 450 nm
Protocol: Measurement of Cell Proliferation-Suppressing Activity (Chromogenic Method)
Human acute myeloid leukemia MV4-11 cells (2×10^4 cells) are inoculated on a 96-well microtiter plate. Each compound is added at a final concentration of 1 μM on the next day, and the cells are cultured for additional 48 hours. Absorbance is measured at 450 nm by using Cell Counting Kit-8 (Nacalai Tesque) to calculate the cell proliferation-suppressing activity.

pim-1 kinase, sequence (P11309 whole entry): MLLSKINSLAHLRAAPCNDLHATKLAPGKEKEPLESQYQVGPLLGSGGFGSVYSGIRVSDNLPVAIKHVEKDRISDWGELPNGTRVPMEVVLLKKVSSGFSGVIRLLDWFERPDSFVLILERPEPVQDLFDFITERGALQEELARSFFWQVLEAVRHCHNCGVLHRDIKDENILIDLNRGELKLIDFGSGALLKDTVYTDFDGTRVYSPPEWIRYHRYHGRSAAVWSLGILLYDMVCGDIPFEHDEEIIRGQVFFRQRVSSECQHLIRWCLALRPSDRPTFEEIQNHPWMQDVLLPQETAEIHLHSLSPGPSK

Row | inhibition at 0.1 µM (pim-1 kinase; Table 2) [%] | inhibition at 0.1 µM (pim-1 kinase; Table 1) [%] | SMILES | inhibition at 1 µM ([1]; Table 7) [%] | other results
1 | 96 |  | COc1ccc2c(c1/C=C\CC1CCNCC1)O/C(=C\c1n[nH]c3ccccc13)C2=O [Compound B59, (Z)-2-[(1H-Indazol-3-yl)methylene]-6-methoxy-7-[(Z)-3-(piperidin-4-yl)prop-1-enyl]benzofuran-3(2H)-one] | 55 | 
2 |  | 92 | CCOc1ccc2c(c1CN1CCNCC1)O/C(=C\c1c[nH]c3ccccc13)C2=O [Compound A59, (Z)-2-[(1H-Indol-3-yl)methylene]-6-ethoxy-7-(piperazin-1-ylmethyl)benzofuran-3(2H)-one] |  | inhibition at 1 µM ([1]; Table 6): 95%
3 | 82 |  | COc1ccc2c(c1/C=C\CCN1CCNCC1)O/C(=C\c1n[nH]c3ccccc13)C2=O [Compound B50, (Z)-2-[(1H-Indazol-3-yl)methylene]-6-methoxy-7-[(Z)-4-(piperazin-1-yl)but-1-enyl]benzofuran-3(2H)-one] | 96 | 
4 | 93 |  | O=C1/C(=C/c2n[nH]c3ncccc23)Oc2c1ccc(O)c2CN1CCNCC1 [Compound B68, (Z)-2-[(1H-Pyrazolo[3,4-b]pyridin-3-yl)methylene]-6-hydroxy-7-(piperazin-1-ylmethyl)benzofuran-3(2H)-one] | 52 | 
5 | 98 |  | COc1ccc2c(c1CC1CCNCC1)O/C(=C\c1n[nH]c3ccccc13)C2=O [Compound B54, (Z)-2-[(1H-Indazol-3-yl)methylene]-6-methoxy-7-(piperidin-4-ylmethyl)benzofuran-3(2H)-one] | 97 | 
6 | 95 |  | COc1ccc2c(c1/C=C\C1CCNCC1)O/C(=C\c1n[nH]c3ccccc13)C2=O [Compound B56, (Z)-2-[(1H-Indazol-3-yl)methylene]-6-methoxy-7-[(Z)-2-(piperidin-4-yl)vinyl]benzofuran-3(2H)-one] | 99 | 
7 | 81 |  | COc1ccc2c(c1/C=C/C1CCNCC1)O/C(=C\c1n[nH]c3ccccc13)C2=O [Compound B64, (Z)-2-[(1H-Indazol-3-yl)methylene]-6-methoxy-7-[(E)-2-(piperidin-4-yl)vinyl]benzofuran-3(2H)-one] | 93 | 
8 | 94 |  | O=C1/C(=C/c2n[nH]c3ccc(Br)cc23)Oc2c1ccc(O)c2CN1CCNCC1 [Compound B10, (Z)-6-Hydroxy-7-(piperazin-1-ylmethyl)-2-[(5-bromo-1H-indazol-3-yl)methylene]benzofuran-3(2H)-one] |  | 
9 | 90 |  | O=C1/C(=C/c2n[nH]c3ccc(OC(F)(F)F)cc23)Oc2c1ccc(O)c2CN1CCNCC1 [Compound B12, (Z)-6-Hydroxy-7-(piperazin-1-ylmethyl)-2-{[5-(trifluoromethoxy)-1H-indazol-3-yl]methylene}benzofuran-3(2H)-one] |  | 
10 |  | 15 | O=C1/C(=C/c2c[nH]c3ccccc23)Oc2c1ccc(O)c2CN1CCC(O)CC1 [Compound A6, (Z)-2-[(1H-Indol-3-yl)methylene]-6-hydroxy-7-[(4-hydroxypiperidin-1-yl)methyl]benzofuran-3(2H)-one] |  | 
11 |  | 56 | CN1CCN(Cc2c(O)ccc3c2O/C(=C\c2c[nH]c4ncccc24)C3=O)CC1 [Compound A43, (Z)-2-[(1H-Pyrrolo[2,3-b]pyridin-3-yl)methylene]-6-hydroxy-7-[(4-methylpiperazin-1-yl)methyl]benzofuran-3(2H)-one] |  | 
12 | 39 |  | COc1ccc2c(c1CN1CCOCC1)O/C(=C\c1n[nH]c3ccccc13)C2=O [Compound B33, (Z)-2-[(1H-Indazol-3-yl)methylene]-6-methoxy-7-(morpholinomethyl)benzofuran-3(2H)-one] |  | 
13 |  | 62 | CC(=O)NCc1ccc2[nH]cc(/C=C3\Oc4c(ccc(O)c4CN4CCNCC4)C3=O)c2c1 [Compound A20, (Z)—N-[(3-{[6-Hydroxy-3-oxo-7-(piperazin-1-ylmethyl)benzofuran-2(3H)-ylidene]methyl}-1H-indol-5-yl)methyl]acetamide dihydrochloride] |  | 

The remaining lines, values behind:

Row | SMILES | inhibition at 0.1 µM (pim-1 kinase; Table 2) [%] | inhibition at 0.1 µM (pim-1 kinase; Table 1) [%] | inhibition at 1 µM ([1]; Table 7) [%] | other results
14 | COc1ccc2c(c1Cc1c(C)n[nH]c1C)O/C(=C\c1n[nH]c3ccccc13)C2=O [Compound B73, (Z)-2-[(1H-Indazol-3-yl)methylene]-7-[(3,5-dimethyl-1H-pyrazol-4-yl)methyl]-6-methoxybenzofuran-3(2H)-one] | 49 |  | 81 | 
15 | O=C1/C(=C/c2n[nH]c3ccccc23)Oc2c(CN3CCNCC3)cccc21 [Compound B45, (Z)-2-[(1H-Indazol-3-yl)methylene]-7-(piperazin-1-ylmethyl)benzofuran-3(2H)-one] | 79 |  | 28 | 
16 | COc1ccc2c(c1C1=CCNCC1)O/C(=C\c1n[nH]c3ccccc13)C2=O [Compound B52, (Z)-2-[(1H-Indazol-3-yl)methylene]-6-methoxy-7-(1,2,3,6-tetrahydropyridin-4-yl)benzofuran-3(2H)-one] | 50 |  | 98 | 
17 | Cc1ccc2c(/C=C3\Oc4c(ccc(O)c4CN4CCNCC4)C3=O)c[nH]c2n1 [Compound A48, (Z)-6-Hydroxy-2-[(6-methyl-1H-pyrrolo[2,3-b]pyridin-3-yl)methylene]-7-(piperazin-1-ylmethyl)benzofuran-3(2H)-one trihydrochloride] |  | 97 |  | 
18 | O=C1/C(=C/c2n[nH]c3ccccc23)Oc2c1ccc(OCc1ccccc1)c2CN1CCNCC1 [Compound B28, (Z)-2-[(1H-Indazol-3-yl)methylene]-6-(benzyloxy)-7-(piperazin-ylmethyl)benzofuran-3(2H)-one] |  |  |  | Pim-1 kinase inhibitory activity (%) (pim-1 kinase; Table 2): 92%
19 | O=C1/C(=C/c2n[nH]c3ccc(F)cc23)Oc2c1ccc(O)c2CN1CCNCC1 [Compound B8, (Z)-6-Hydroxy-7-(piperazin-1-ylmethyl)-2-[(5-fluoro-1H-indazol-3-yl)methylene]benzofuran-3(2H)-one] | 81 |  |  | 
20 | O=C1/C(=C/c2c[nH]c3cc([N+](=O)[O-])ccc23)Oc2c1ccc(O)c2CN1CCNCC1 [Compound A24, (Z)-6-Hydroxy-2-[(6-nitro-1H-indol-3-yl)methylene]-7-(piperazin-1-ylmethyl)benzofuran-3(2H)-one dihydrochloride] |  | 60 |  | 
21 | O=C1/C(=C/c2n[nH]c3ccc(Cl)cc23)Oc2c1ccc(O)c2CN1CCNCC1 [Compound B9, (Z)-6-Hydroxy-7-(piperazin-1-ylmethyl)-2-[(5-chloro-1H-indazol-3-yl)methylene]benzofuran-3(2H)-one] | 93 |  |  | 
22 | O=C1/C(=C/c2c[nH]c3ccccc23)Oc2c1ccc(O)c2CN1CCSCC1 [Compound A4, (Z)-2-[(1H-Indol-3-yl)methylene]-6-hydroxy-7-(thiomorpholinomethyl)benzofuran-3(2H)-one] |  | 19 |  | 
23 | O=C1/C(=C/c2c[nH]c3ccc(Cl)cc23)Oc2c1ccc(O)c2CN1CCNCC1 [Compound A21, (Z)-2-[(5-Chloro-1H-indol-3-yl)methylene]-6-hydroxy-7-(piperazin-1-ylmethyl)benzofuran-3(2H)-one dihydrochloride] |  | 94 |  | 
24 | COc1ccc2c(c1CN1CCN(C)CC1)O/C(=C\c1n[nH]c3ccccc13)C2=O [Compound B32, (Z)-2-[(1H-Indazol-3-yl)methylene]-6-methoxy-7-[(4-methylpiperazin-1-yl)methyl]benzofuran-3(2H)-one] | 63 |  |  | 
